Test results published in patent US12180509B2, “Methods for reprograming non-pluripotent cells into pluripotent stem cells” (Beihao Stem Cell and Regenerative Medicine Research …, priority 2015, dated 2024).
Counter-ions that a name gives are not always drawn.

Experiments:
Assay type in all cases: cell-based, mouse
MEFs from OG mice [1] = assay: Screen for chemical substitutes of Oct4 in OG-MEFs infected with Sox2, Klf4 and c-Myc; settings: OG-MEFs with viral expression of Sox2, Klf4 and c-Myc, no Oct4
Experimental: To identify chemical substitutes of Oct4, MEFs from OG mice were plated at a density of 20,000 cells per well of a 12-well plate and infected with lentiviruses encoding Sox2, Klf4 and c-Myc. After infection, the medium was replaced with LIF-free ESC culture medium. Individual chemicals from small-molecule libraries were added to each well. The medium and chemicals were changed every 4 days. Chemical treatments were continued for 14-20 days or until GFP-positive colonies appeared. Primary hits were selected for further confirmation and optimization.
Small molecules that enable reprogramming in the absence of Oct4 were searched using Oct4 promoter-driven green fluorescent protein (GFP) expression (OG) mouse embryonic fibroblasts (MEFs), with viral expression of Sox2, Klf4, and c-Myc.

MEFs = assay: CiPSC induction from MEFs with small-molecule combinations (no XEN priming); settings: for replacement of DZNep in CiPSC generation: SAH hydrolase inhibitor in combination with VC6TF
Experimental: The initial cells (MEFs, MNFs, MAFs or ADSCs) were seeded at a density of 50,000 cells per well of a 6-well plate or 300,000 cells per 100 mm dish. On the next day (day 0), the original medium was replaced with chemical reprogramming medium containing the small-molecule combinations. The small-molecule combinations-containing medium was changed every 4 days. On day 12, these cells were washed in PBS and digested with 0.25% Trypsin-EDTA (Invitrogen) at 37° C. for 3-5 min. After neutralization, the cell clumps were dissociated into single cells by thorough pipetting. The cells were harvested (300,000-1,000,000 cells per well of a 6-well plate) and replated at a density of 300,000-500,000 cells per well of a 6-well plate in the chemical reprogramming medium containing the small-molecule combinations. DZNep was added to the cell cultures on day 16 or day 20. On day 28-36, the small-molecule combinations including DZNep were removed. Meanwhile, the chemical reprogramming medium was replaced with 2i-medium. After another 8-12 days, 2i-competent, ESC-like and GFP-positive colonies were counted as primary CiPSC colonies. For CiPSC induction from wild-type cells without OG reporter, 2i-competent and ESC-like colonies were counted as primary CiPSC colonies. These CiPSC colonies were picked up for expansion and characterization. Alternatively, CiPSCs could be induced without replating on day 12.

MEFs from OG mice [2] = assay: Screen for small molecules that facilitate late reprogramming (DOX-inducible Oct4 plus VC6T); settings: VC6T plus DOX-induced Oct4 for the first 4-8 days
Experimental: To identify small molecules that facilitate late reprogramming, a doxycycline (DOX)-inducible Oct4 expression screening system was used (Li, et al., Cell Res. 21:196-204 (2011)).
MEFs from OG mice were plated as described above and infected with Fu-tet-hOct4 and FUdeltaGW-rtTA lentiviruses. The induction protocol was carried out as described above.
After infection, the culture medium was replaced with LIF-free ESC culture medium containing VC6T (VPA, CHIR99021, 616452, Tranylcypromine) plus DOX (1 μg/ml). Alternatively, MEFs harboring DOX-inducible Oct4 from Tet-On POUSF1 mouse strain B6; 129-Gt (ROSA)26Sor^tm1(TrtTA*M2)Jae Colla1^tm2(tetO-Pou5f1)Jae/J were used in this screen (Li, et al., Cell Res., 21:196-204 (2011)). These two DOX-inducible systems were only used in this screen, but not in complete chemical reprogramming. Individual chemicals from small-molecule libraries were added to each well. Small molecules were added at different culture time points. 5-aza-C(5-Azacytidine) and DZNep were added from day 8. The medium and chemicals were changed every 4 days; DOX was added only for the first 4-8 days. Chemical treatments were continued for 16-24 days or until GFP-positive colonies appeared. Primary hits were selected for further confirmation and optimization. CiPSC colonies were counted on day 44. […]

[3] = test system: pluripotency-related genes and XEN marker genes; assay: Real-time PCR of pluripotency, XEN and MET genes during chemical reprogramming; settings: for expression of XEN marker genes (Sall4, Gata4, Sox17): stage 1, fibroblasts to XEN-like cells; for endogenous expression of Sall4 and Sox2 on withdrawal of the chemical: chemicals withdrawn from VC6TF, after 12 days
Experimental: Total RNA from an entire well of cultured cells was isolated using the RNeasy Plus MiniKit (QIAGEN). For a single colony, RNA was isolated using the RNeasy Micro Kit (QIAGEN). RNA was converted to cDNA using TransScript First-Strand cDNA Synthesis SuperMix (TransGen Biotech). PCR was carried out using Power SYBRR Green PCR Master Mix (Applied Biosystems) and performed on an ABI Prism 7300 Sequence Detection System. The data were analyzed using the delta-delta Ct method.

[4] = test system: intracellular levels SAH to SAM; assay: SAM and SAH quantification by HPLC; settings: during chemical reprogramming, relative to MEFs
Experimental: (§1) CAMP was quantified using the Direct cAMP ELISA Kit (Enzo) according to the manufacturer's protocol. For SAM and SAH quantification, cultured cells (1,000,000 cells) were trypsinized and homogenized by ultrasonication in 200 μl PBS. Then 40 μl of 400 mg/ml TCA was added. Cell extracts were incubated on ice for 30 min. After centrifugation at 4° C. (13,000 rpm, 15 min), the supernatants were filtered through a 0.22 μm filter and analyzed by high-performance liquid chromatography (HPLC, Shimadzu) with HILIC columns (Waters).

Oct4 promoter = assay: DNA methylation (bisulfite sequencing) and H3K9 methylation (ChIP) at the Oct4 promoter; settings: presence versus absence of DZNep, day 32
Experimental: Genomic DNA was modified by bisulfite treatment and purified using the MethylCode™ Bisulfite Conversion Kit (Invitrogen) according to the manufacturer's protocol. The amplified fragments were cloned into the pEASY-blunt Vector (Transgene). Ten randomly picked clones from each sample were sequenced. ChIP was performed using the EZ-Magna ChIP A/G Kit (Millipore) according to the manufacturer's protocol. Anti-H3K27me3 (Abcam, ab6002), anti-H3K9me2 (Millipore, 07-441), anti-H3K4me3 (Abcam, ab8580) and anti-H3K9ac (Abcam, ab4441) antibodies were used. Following immunoprecipitation, DNA was analyzed by real-time PCR.

cAMP = assay: Intracellular cAMP quantification (Direct cAMP ELISA); settings: MEF, FSK 10 μM versus DMSO control
Experimental: as §1
The effect of inhibiting adenylate cyclase on the number of colonies generated by VC6TFZ was tested. […] The effect of replacing FSK with the cAMP analog (DBcAMP), alone or in combination with phosphodiesterase inhibitors, IBMX, or the phosphodiesterase inhibitor, rolipram and IBMX, on cell reprograming was also tested. Both DBcAMP and IBMX were used at 50 μM in the combination treatment.

Cc1[nH]c2ccc(O)cc2c1CCN [2-Me-5HT, 2-Methyl-5-hydroxytryptamine hydrochloride]
chemical substitute for Oct4 (iPSC induction) (MEFs from OG mice [1]): identified as chemical “substitutes” for Oct4

C[C@H]1O[C@@H](n2cnc3c(N)ncnc32)C[C@@H]1O [2′5′ddAdo, 2′,5′-Dideoxyadenosine]
number of colonies formed by VC6TFZ (MEFs; inhibition of adenylate cyclase during VC6TFZ treatment): decreased the number of colonies

Nc1ncn([C@@H]2O[C@H](CO)[C@@H](O)[C@H]2O)c(=O)n1 [5-Azacytidine]
small molecule hit facilitating late reprogramming (MEFs from OG mice [2]): identified in this screen

CC1(C)CCC(C)(C)c2cc(C(=O)Nc3ccc(C(=O)O)cc3)ccc21 [AM580, 4-[(5,6,7,8-Tetrahydro-5,5,8,8-tetramethyl-2-naphthalenyl)carboxamido]benzoic acid]
expression of XEN marker genes (Sall4, Gata4, Sox17) [3]: promote the expression of XEN marker genes

Nc1ncnc2c1ncn2C(C=O)OC(C=O)CO (centres unmarked) [Adox, Adenosine, periodate oxidized]
replacement of DZNep in CiPSC generation (MEFs): useful in replacing DZNep in reprogramming

Cc1cnc(-c2cnc(NCCNc3ccc(C#N)cn3)nc2-c2ccc(Cl)cc2Cl)[nH]1 [CHIR99021, 6-[[2-[[4-(2,4-Dichlorophenyl)-5-(5-methyl-1H-imidazol-2-yl)-2-pyrimidinyl]amino]ethyl]amino]-3-pyridinecarbonitrile]
endogenous expression of Sall4 and Sox2 on withdrawal of the chemical [3]: essential in activating the endogenous expression of Sall4 and Sox2 | increase in the expression of Gata4, Sox17 and EpCAM ([3]; increased concentration of CHIR99021 (20 μM versus 10 μM) in VC6TF, 12 days): up to 10 fold

NC(=O)c1ccc(-c2nc(-c3ccc4c(c3)OCCO4)c(-c3ccccn3)[nH]2)cc1 [D4476, 4-[4-(2,3-Dihydro-1,4-benzodioxin-6-yl)-5-(2-pyridinyl)-1H-imidazol-2-yl]benzamide]
chemical substitute for Oct4 (iPSC induction) (MEFs from OG mice [1]): identified as chemical “substitutes” for Oct4

Nc1nccc2c1ncn2[C@@H]1O[C@H](CO)[C@@H](O)[C@H]1O [DZA, 3-Deazaadenosine]
replacement of DZNep in CiPSC generation (MEFs): useful in replacing DZNep in reprogramming

Nc1nccc2c1ncn2[C@@H]1C=C(CO)[C@@H](O)[C@H]1O [DZNep, 3-deazaneplanocin A]
concentration ratio of SAH to SAM [4]: elevates the concentration ratio of SAH to S-adenosylmethionine (SAM) | small molecule hit facilitating late reprogramming (MEFs from OG mice [2]): identified in this screen | DNA methylation and H3K9 methylation at the Oct4 promoter (Oct4 promoter): significantly decreased | Oct4 expression ([3]; after addition of DZNep in the late phase of chemical reprogramming): enhanced significantly

CC(C)N(CCCNC(=O)Nc1ccc(C(C)(C)C)cc1)C[C@H]1O[C@@H](n2ccc3c(N)ncnc32)[C@H](O)[C@@H]1O [EPZ004777, 1-(3-((((2R,3S,4R,5R)-5-(4-amino-7H-pyrrolo[2,3-d]pyrimidin-7-yl)-3,4-dihydroxytetrahydrofuran-2-yl)methyl)(isopropyl)amino)propyl)-3-(4-(tert-butyl)phenyl)urea]
expression of XEN marker genes (Sall4, Gata4, Sox17) [3]: promote the expression of XEN marker genes

C=C[C@@]1(C)CC(=O)[C@]2(O)[C@@]3(C)[C@@H](O)CCC(C)(C)[C@@H]3[C@H](O)[C@H](OC(C)=O)[C@@]2(C)O1 [Forskolin]
small molecule hit facilitating late reprogramming (MEFs from OG mice [2]): identified in this screen | endogenous expression of Sall4 and Sox2 on withdrawal of the chemical [3]: essential in activating the endogenous expression of Sall4 and Sox2 | chemical substitute for Oct4 (iPSC induction) (MEFs from OG mice [1]): identified as chemical “substitutes” for Oct4 | intracellular cAMP level (cAMP): significantly elevates the CAMP level

Nc1ncnc2c1ncn2[C@@H]1C=C(CO)[C@@H](O)[C@H]1O [NEPA, (−)-Neplanocin A]
replacement of DZNep in CiPSC generation (MEFs): useful in replacing DZNep in reprogramming

CCCCC[C@H](O)/C=C/[C@H]1[C@H](O)CC(=O)[C@@H]1C/C=C\CCCC(=O)O [Prostaglandin E2]
small molecule hit facilitating late reprogramming (MEFs from OG mice [2]): identified in this screen

O=C(O)[C@@H](Cc1c[nH]c2ccccc12)N1C(=O)C2=CCCC=C2C1=O [RG108]
small molecule hit facilitating late reprogramming (MEFs from OG mice [2]): identified in this screen

COc1ccc(C2CNC(=O)C2)cc1OC1CCCC1 (centres unmarked) [Rolipram]
small molecule hit facilitating late reprogramming (MEFs from OG mice [2]): identified in this screen

C/C(=C\c1ccc(C(=O)O)cc1)c1ccc2c(c1)C(C)(C)CCC2(C)C [TTNPB, 4-[(E)-2-(5,6,7,8-Tetrahydro-5,5,8,8-tetramethyl-2-naphthalenyl)-1-propenyl]benzoic acid]
chemical reprogramming efficiency enhanced, factor (MEFs; TTNPB as booster added to the chemical cocktail (C6FZ or VC6TFZ) in MEFs): ≤ 40 | reprogramming frequency (MEFs; with TTNPB, comparable to transcription factor-induced reprogramming): up to 0.2%

Cc1cccc(-c2n[nH]cc2-c2ccc3ncccc3n2)n1 [compound 616452, 2-(3-(6-Methylpyridin-2-yl)-1H-pyrazol-4-yl)-1,5-naphthyridine]
endogenous expression of Sall4 and Sox2 on withdrawal of the chemical [3]: essential in activating the endogenous expression of Sall4 and Sox2

CCCC(=O)[O-].[Na+] [sodium butyrate, Sodium butyrate]
small molecule hit facilitating late reprogramming (MEFs from OG mice [2]): identified in this screen
